PubChem BioAssay (NCI)
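A five-concentration, 48-hour dose response in 96-well plates underlies each endpoint, interpolated linearly between surrounding concentrations. GI50 marks 50% less growth. At the TGI there is no net growth.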

Assays:
Assay in all cases: growth of human tumour cells (NCI), 48 h
[1] = tested on: 786-0 renal
[2] = tested on: A498 renal
[3] = tested on: A549 NSCLC
[4] = tested on: ACHN renal
[5] = tested on: BT-549 breast
[6] = tested on: CAKI-1 renal
[7] = tested on: CCRF-CEM leukemia
[8] = tested on: COLO 205 colon
[9] = tested on: DU-145 prostate
[10] = tested on: EKVX NSCLC
[11] = tested on: HCC-2998 colon
[12] = tested on: HCT-116 colon
[13] = tested on: HCT-15 colon
[14] = tested on: HL-60(TB) leukemia
[15] = tested on: HOP-62 NSCLC
[16] = tested on: HOP-92 NSCLC
[17] = tested on: HS 578T breast
[18] = tested on: HT29 colon
[19] = tested on: IGROV1 ovarian
[20] = tested on: K-562 leukemia
[21] = tested on: KM12 colon
[22] = tested on: LOX IMVI melanoma
[23] = tested on: M14 melanoma
[24] = tested on: MALME-3M melanoma
[25] = tested on: MCF7 breast
[26] = tested on: MDA-MB-231 breast
[27] = tested on: MDA-MB-435
[28] = tested on: MDA-MB-468 breast
[29] = tested on: MOLT-4 leukemia
[30] = tested on: NCI-H226 lung
[31] = tested on: NCI-H23 lung
[32] = tested on: NCI-H522 lung
[33] = tested on: NCI/ADR-RES ovarian
[34] = tested on: OVCAR-3 ovarian
[35] = tested on: OVCAR-4 ovarian
[36] = tested on: OVCAR-5 ovarian
[37] = tested on: OVCAR-8 ovarian
[38] = tested on: PC-3 prostate
[39] = tested on: RPMI-8226 leukemia
[40] = tested on: RXF 393 renal
[41] = tested on: SF-268 CNS
[42] = tested on: SF-295 CNS
[43] = tested on: SF-539 CNS
[44] = tested on: SK-MEL-2 melanoma
[45] = tested on: SK-MEL-28 melanoma
[46] = tested on: SK-MEL-5 melanoma
[47] = tested on: SK-OV-3 ovarian
[48] = tested on: SN12C renal
[49] = tested on: SNB-19 CNS
[50] = tested on: SNB-75 CNS
[51] = tested on: SR leukemia
[52] = tested on: SW-620 colon
[53] = tested on: T-47D breast
[54] = tested on: TK-10 renal
[55] = tested on: U251 CNS
[56] = tested on: UACC-257 melanoma
[57] = tested on: UACC-62 melanoma
[58] = tested on: UO-31 renal

SMILES: O=C(NN1C(=O)/C(=C/C=C/c2ccc([N+](=O)[O-])o2)SC1=S)c1ccccc1O
- GI50 [1]: 1110 nM
- TGI [1]: 2330 nM
- GI50 [2]: 18.3 µM
- TGI [2]: 32.6 µM
- GI50 [3]: 2980 nM
- TGI [3]: 10.5 µM
- GI50 [4]: 1460 nM
- TGI [4]: 2780 nM
- GI50 [5]: 673 nM
- TGI [5]: 1800 nM
- GI50 [6]: 1330 nM
- TGI [6]: 2670 nM
- GI50 [7]: 318 nM
- TGI [7]: 1490 nM
- GI50 [8]: 957 nM
- TGI [8]: 2280 nM
- GI50 [9]: 1590 nM
- TGI [9]: 3.02 µM
- GI50 [10]: 1370 nM
- TGI [10]: 2750 nM
- GI50 [11]: 1370 nM
- TGI [11]: 2700 nM
- GI50 [12]: 197 nM
- TGI [12]: 395 nM
- GI50 [13]: 149 nM
- TGI [13]: 340 nM
- GI50 [14]: 1730 nM
- TGI [14]: 9.47 µM
- GI50 [15]: 1620 nM
- TGI [15]: 3.11 µM
- GI50 [16]: 1680 nM
- TGI [16]: 4.13 µM
- GI50 [17]: 2100 nM
- TGI [17]: 7.47 µM
- GI50 [18]: 1000 nM
- TGI [18]: 2780 nM
- GI50 [19]: 1230 nM
- TGI [19]: 2480 nM
- GI50 [20]: 276 nM
- TGI [20]: > 33.3 µM
- GI50 [21]: 1620 nM
- TGI [21]: 3.77 µM
- GI50 [22]: 194 nM
- TGI [22]: 402 nM
- GI50 [23]: 298 nM
- TGI [23]: 873 nM
- GI50 [24]: 223 nM
- TGI [24]: 507 nM
- GI50 [25]: 432 nM
- TGI [25]: 2020 nM
- GI50 [26]: 257 nM
- TGI [26]: 613 nM
- GI50 [27]: 371 nM
- TGI [27]: 1380 nM
- GI50 [28]: 1400 nM
- TGI [28]: 3.07 µM
- GI50 [29]: 390 nM
- TGI [29]: 7.56 µM
- GI50 [30]: 1110 nM
- TGI [30]: 2690 nM
- GI50 [31]: 846 nM
- TGI [31]: 2170 nM
- GI50 [32]: 262 nM
- TGI [32]: 749 nM
- GI50 [33]: 1780 nM
- TGI [33]: 5.75 µM
- GI50 [34]: 1230 nM
- TGI [34]: 2540 nM
- GI50 [35]: 1720 nM
- TGI [35]: 3.72 µM
- GI50 [36]: 1840 nM
- TGI [36]: 3.3 µM
- GI50 [37]: 366 nM
- TGI [37]: 1600 nM
- GI50 [38]: 1920 nM
- TGI [38]: 4.94 µM
- GI50 [39]: 379 nM
- TGI [39]: 2530 nM
- GI50 [40]: 1420 nM
- TGI [40]: 2760 nM
- GI50 [41]: 1800 nM
- TGI [41]: 4.2 µM
- GI50 [42]: 1790 nM
- TGI [42]: 3.42 µM
- GI50 [43]: 1310 nM
- TGI [43]: 2670 nM
- GI50 [44]: 663 nM
- TGI [44]: 2060 nM
- GI50 [45]: 1680 nM
- TGI [45]: 3.13 µM
- GI50 [46]: 771 nM
- TGI [46]: 2030 nM
- GI50 [47]: 2260 nM
- TGI [47]: 5.28 µM
- GI50 [48]: 237 nM
- TGI [48]: 714 nM
- GI50 [49]: 1760 nM
- TGI [49]: 3.34 µM
- GI50 [50]: 1290 nM
- TGI [50]: 5.84 µM
- GI50 [51]: 221 nM
- TGI [51]: > 100 µM
- GI50 [52]: 196 nM
- TGI [52]: 426 nM
- GI50 [53]: 1630 nM
- TGI [53]: 3.23 µM
- GI50 [54]: 1960 nM
- TGI [54]: 4.19 µM
- GI50 [55]: 1270 nM
- TGI [55]: 2620 nM
- GI50 [56]: 1720 nM
- TGI [56]: 3.6 µM
- GI50 [57]: 675 nM
- TGI [57]: 1900 nM
- GI50 [58]: 1240 nM
- TGI [58]: 2490 nM
